Experimental data published in article PMC4694998, “Suppression of β-catenin/TCF transcriptional activity and colon tumor cell growth by dual inhibition of PDE5 and 10” (Oncotarget, 2015).

How the values were obtained:
HCT116 colon tumor cells [1] = assay: Cell proliferation assay (EdU incorporation, flow cytometry); format: cell-based, human; conditions: 24 hours treatment with 0.1 μmol/L
Experimental: The antiproliferative activity of ADT-094 was determined by measuring EdU (5-ethynyl-2′-deoxyuridine) incorporation during DNA synthesis. Cells were plated at a density of 1.5 × 10^6 cells per 10 cm tissue culture dish and incubated overnight at 37°C. After growing the cells in serum-free media overnight, the cells were treated with ADT-094 or vehicle in medium supplemented with 10% serum for 6 hours. A final concentration of 10 μmol/L EdU was added to each dish and incubated for an additional 18 hours. Cells were harvested and analyzed using the Click-iT EdU Alexa Fluor 488 Proliferation Assay (Invitrogen) according to the manufacturer’s specifications. The percentage of proliferating cells was quantified using a BD FACSCalibur flow cytometer.

[2] = system: NCM460 normal colonocytes; assay: Growth assay (Cell Titer Glo), NCM460 normal colonocytes; format: cell-based, human
Experimental: Human colon tumor cell lines, HCT116, HT29, SW480 and Caco-2 were obtained from the American Type Culture Collection (ATCC) and grown under standard cell culture conditions in RPMI 1640 medium containing 5% serum at 37°C in a humidified atmosphere with 5% CO2. The human colonocyte line, NCM460, that is derived from normal human colon mucosa was obtained from INCELL and grown in INCELL’s enriched M3:10 medium with 10% serum as recommended by supplier. All cell lines were expanded upon delivery, and numerous aliquots of low passage cells were preserved in liquid N2. Cells were passaged no longer than 2 months. Tumor cell lines obtained from ATCC were characterized by STR profiling as performed by ATCC. The NCM460 line was characterized by INCELL as described previously (e.g. tumorigenicity testing). No additional re-authentication of the cell lines was performed except for experimental reasons (e.g. confirmation of cell doubling time, morphology, sensitivity to SS, PDE5/10 expression levels, etc).
Cells were plated in 96-well microtiter plates at a density of 5,000 cells per well. For drug treatment, cells were treated with compound or vehicle, and incubated at 37°C for 72 hours. All growth assays were performed in 5% serum unless otherwise noted. Deionized water was used as vehicle control for papaverine. For siRNA assays, cells were transfected with siRNA under the same condition described above. The effect of treatment on cell growth was measured using the Cell Titer Glo Assay as specified by the manufacturer (Promega).
The IC50 values were determined as described previously. All experiments were repeated a minimum of three times to determine the reproducibility of the results. All error bars represent standard error of the mean (SEM). Statistical analysis of differences between samples was performed using the Student’s t-test. A P value of < 0.05 was considered statistically significant.

[3] = system: PKG/PKA activity (VASP Ser239/Ser157) in Caco-2 colon tumor cells; assay: Western blotting of VASP phosphorylation, Caco-2; format: cell-based, human
Experimental: (§1) Western blotting was performed as described previously. Cells were treated with ADT-094 or vehicle for 8 hours before cell lysates were collected.

[4] = system: β-catenin/TCF transcriptional activity in HCT116 cells; format: cell-based; conditions: HCT116, 24 hours of treatment
Experimental: (§2) Cells were seeded at a density of 5 × 10^4 cells per well in 24-well tissue culture plates and incubated overnight at 37°C. Cells were transiently transfected with 0.1 μg TOP-FLASH constructs (Millipore) and 0.1 μg β-galactosidase-expressing vector (Promega). After 24 hours of transfection, cells were treated with ADT-094 or vehicle for 24 hours. At the end of treatment, cells were lysed and both luciferase and β-galactosidase activities were measured using kits from Promega. All luciferase activity was normalized to β-galactosidase activity.

[5] = system: PKG activity (phospho-Ser239 VASP) in HCT116 colon tumor cells; assay: Western blotting of VASP phosphorylation, HCT116; format: cell-based, human
Experimental: as §1

[6] = system: intracellular cGMP in normal colonocytes; assay: cGMP assay (EIA), colonocytes; format: cell-based, human; conditions: 45 min of treatment
Experimental: (§3) Cells were plated at a density of 1 × 10^6 cells per 10 cm tissue culture dish, incubated for 48 hours, and treated with ADT-094 or vehicle control. After 45 min of treatment, cells were lysed and assayed for cGMP content using the cGMP Direct Biotrak EIA kit (GE Healthcare Life Sciences). The assay was done according to the manufacturer’s specifications.

HCT116 colon tumor cells [7] = assay: Apoptosis assay (Caspase 3/7 Glo), HCT116; format: cell-based, human; conditions: caspase-3 and -7, 6 hours of treatment
Experimental: Cells were plated in 96-well microtiter plates at a density of 10,000 cells per well, and allowed to attach overnight. Cells were treated with ADT-094 or vehicle, and incubated at 37°C for 6 hours. All apoptosis assays were done in 5% serum using either tumor cells or normal colonocytes. The induction of apoptosis caused by treatment was determined using Caspase 3/7 Glo Assay (Promega), which is a luminescent assay that measures substrate cleavage by caspases-3 and -7. The assay was done according to manufacturer’s specifications.

[8] = system: intracellular cGMP in HCT116 colon tumor cells; assay: cGMP assay (EIA), HCT116; format: cell-based, human; conditions: 45 min of treatment
Experimental: as §3

[9] = system: β-catenin/TCF transcriptional activity in SW480 cells; assay: TOP-FLASH luciferase reporter assay, SW480; format: cell-based, human; conditions: SW480, 24 hours of treatment
Experimental: as §2

[10] = system: β-catenin signaling in Caco-2 colon tumor cells; assay: Western blotting of β-catenin, cyclin D1, survivin, Caco-2; format: cell-based, human
Experimental: as §1

## COc1ccc2c(c1)C(CC(=O)NCc1ccco1)=C(C)/C2=C/c1cc(OC)c(OC)c(OC)c1 [ADT-094, (Z)-N-(furan-2-ylmethyl)-2-(5-methoxy-2-methyl-1-(3,4,5-trimethoxybenzylidene)-1H-inden-3-yl) acetamide]
HCT116 colon tumor cells [1]
  proliferation (EdU incorporation): inhibited the proliferation
[2]; Homo sapiens, NCM460, Figure 3C, luciferase-based ATP assay, 72 hours, read-out: NCM460 growth IC50
  IC50: > 10 µM
[2]; in words
  growth of normal colonocytes (tumor cell selectivity): essentially refractory to treatment
[3]; Caco-2
  VASP phosphorylation at Ser239: Dose-dependent increases
[3]; Caco-2, at concentrations that cause PKG activation
  PKA activity (VASP phosphorylation at Ser157): did not affect PKA activity
[4]
  β-catenin/TCF transcriptional activity: significantly inhibited
[5]
  phospho-Ser239 VASP levels (PKG activity): increased
[6]
  intracellular cGMP levels: did not significantly affect
HCT116 colon tumor cells [7]
  caspase activity (apoptosis): increased caspase activity
[8]
  intracellular cGMP levels: significantly increased
[9]
  β-catenin/TCF transcriptional activity: significantly inhibited
[10]
  levels of cyclin D1 and survivin: also decreased
  β-catenin levels: dose-dependent decrease
